Drawing on patent publication US4254135A, “3-Amino-4-hydroxypyrrolidines” (A. H. Robins Company, Inc., priority 1979, dated 1981), this text covers ED50 for four compounds.

Each structure is given as a SMILES string. Counter-ions that a name gives are not always drawn.

In general, ED50 refers to the midpoint of the dose-response relation.

A short description of the experiment: Antitetrabenazine test (blocking of depressant effects induced in mice by intravenous tetrabenazine), antidepressant activity. The settings on record: Mus musculus, ip, compound intraperitoneally, tetrabenazine intravenously. The experiment is classed as in vivo.
Take `CCN1C[C@@H](N(C(=O)c2ccc(Cl)cc2)c2ccccc2)[C@H](OC(=O)c2ccc(Cl)cc2)C1` (relative stereo) [Example 27, Trans-4-chlorobenzoic Acid Ester with 4-[(4-Chlorobenzoyl)(phenyl)amino]-1-ethyl-3-pyrrolidinol (E)-2-butenedioate (3:4)]: the ED50 was determined as 1.1 mg/kg. `CCN1C[C@@H](O)[C@H](N(C(=O)c2ccc(Cl)cc2)c2ccccc2)C1` (relative stereo) [Example 28, Trans-4-chloro-N-(1-ethyl-4-hydroxy-3-pyrrolindinyl)-N-phenylbenzamide Fumarate] returned an ED50 of 2.9 mg/kg. Then `CCN1C[C@@H](O)[C@H](N(C(=O)c2ccccc2)c2ccccc2)C1` (relative stereo) [Example 29, Trans-N-(1-ethyl-4-hyroxy-3-pyrrolidinyl)-N-phenylbenzamide (E)-2-butenedioate], with 2.7 mg/kg. As for `CCN1C[C@@H](O)[C@H](N(C(=O)c2ccccc2)C2CCCCC2)C1` (relative stereo) [Example 50, Trans-4-[(benzoyl)(cyclohexyl)amino]-1-ethyl-3-pyrrolidinol Fumarate [1:1]], it took a dose of 0.3 mg/kg to reach the 50% effect level (ED50). Against the preceding compound, the ED50 is about 9-fold lower.
